Results taken from patent US6436660B1, “Identification of novel antimicrobial agents using metabolic oxidation-reduction indicator dyes” (XOMA Technology Ltd., priority 1999, dated 2002).

Columns and labels:
[1] = tested on: Candida albicans; assay: Effect of antifungal compounds on fungal cells with Alamar Blue (fluorimetric metabolic oxidation-reduction indicator dye assay); type: cell-based; settings: for characteristic pattern or "fingerprint": increased metabolic oxidation-reduction activity (Alamar Blue fluorescence) relative to untreated control cells: Candida albicans 1x10^7 cells/mL, test compound two-fold dilutions from 64 μg/mL, 37° C., readings 0-60 min, best seen at 15 min (FIG. 2); for characteristic "fingerprint" with metabolic oxidation-reduction indicator dye (statement on negative controls): for fungal cells, summary statement
From the text: Alamar Blue™ is an indicator dye formulated to measure quantitatively the proliferation of a variety of human or animal cells, bacteria, or fungi. It consists of an oxidation-reduction (REDOX) indicator that yields colorimetric and fluorimetric changes in response to metabolic activity (electron transport activity).
The relative effect of two BPI-derived peptides, XMP.391 (SEQ ID NO: 4) and XMP.445 (SEQ ID NO: 6), and the antifungal compound amphotericin B on fungal cells with the metabolic oxidation-reduction indicator dye Alamar Blue™ [AccuMed Int'l, Westlake, Ohio] was assessed as follows.
Candida albicans were grown in 75 mL Sabouraud's dextrose broth (SDB) for 5 hours at 30° C. Cells were pelleted by centrifiguation for 5 minutes in a Sorvall RT6000B centrifuge at 3,000 rpm (1500×g) and resuspended in 15 mL of fresh SDB. A 1:10 dilution of this suspension was used for an OD570 nm detennination. One OD unit is equivalent to 1×10^7 CFU/mL. Cells were adjusted to a concentration of 2×10^7 CFU/mL.
Test compounds XMP.391, XMP.445 and Amphotericin B (AMB) were two-fold serially diluted in SDB from a concentration of 128 μg/mL in a 96-well plate. This was done in triplicate with each well containing a volume of 100 μL. An equal volume of the yeast suspension was added to each well.
Alamar Blue™ was added at 20 μL per well and the initial (t=0) fluorescence readings were performed in a Molecular Devices SpectraMax Gemini plate reader. The excitation wavelength was 544 nm and the emission wavelength was measured at 590 nm. The plate was incubated at 37° C. and additional readings at 15, 30, 45 and 60 minutes were performed. Metabolic oxidation-reduction activity is detected by an increase in fluorescence emission.

[2] = tested on: bacterial growth; settings: background statement on narrow therapeutic window; cited from earlier work
[3] = background statement on narrow therapeutic window; cited from earlier work
[4] = tested on: E. coli (ATCC strain 8739); assay: Effect of antibacterial compounds on bacteria with Alamar Blue (colorimetric OD595 assay); type: cell-based; settings: for bacteria; summary statement
Protocol: E. coli (ATCC strain 8739) was incubated at 37° C. in 5 mL cation-adjusted Mueller Hinton Broth (CAMHB) for 3 hours to attain log phase growth. The bacteria were pelleted in a Sorvall RT6000B centrifuge for 5 minutes at 3,000 rpm (1.500×g ) and resuspended in 5 mL of fresh CAMHB. A 1:10 dilution was performed for an OD570 nm determination. One OD unit equals 1.25×10^9 CFU/mL. The bacterial suspension was adjusted to 1×10^8 CFU/mL.
This was done in triplicate with each well containing a volume of 100 μL. An equal volume of the bacterial suspension was added to each well. […] Alamar Blue™ was added at 20 μL per well. The “Blank” contained media and Alamar Blue™ only, without cells.
OD595 nm readings were performed in a Molecular Devices plate reader. This required that samples be centrifuged to pellet bacteria and related debris which would contribute to the OD595 nm reading. 150 μL were removed from the wells at various timepoints, centrifuged (2 minutes, 2,000 rpm) and 50 μL of supernatant was carefully transferred to a fresh 96-well plate for the reading. Timepoints were read at 0, 30, 60, 90 and 120 minutes. Metabolic oxidation-reduction activity is detected by an increase in OD in this colorimetric assay.

C[C@@H]1[C@H](O)[C@@H](C)/C=C/C=C/C=C/C=C/C=C/C=C/C=C/[C@H](O[C@@H]2O[C@H](C)[C@@H](O)[C@H](N)[C@@H]2O)C[C@@H]2O[C@](O)(C[C@@H](O)C[C@@H](O)[C@H](O)CC[C@@H](O)C[C@@H](O)CC(=O)O[C@H]1C)C[C@H](O)[C@H]2C(=O)O [amphotericin B]
characteristic pattern or "fingerprint": increased metabolic oxidation-reduction activity (Alamar Blue fluorescence) relative to untreated control cells [1]: did not show the “fingerprint.” | characteristic "fingerprint" with metabolic oxidation-reduction indicator dye (statement on negative controls) [1]: do not exhibit the characteristic “fingerprint,”

OC(Cn1cncn1)(Cn1cncn1)c1ccc(F)cc1F [fluconazole]
characteristic "fingerprint" with metabolic oxidation-reduction indicator dye (statement on negative controls) [1]: do not exhibit the characteristic “fingerprint,”

XMP.391: BPI-derived peptide, domain III-derived, SEQ ID NO: 4; structure described in Table 1 of U.S. Pat. No. 5,858,974 (KVGWLIQLFHKK)
characteristic pattern or "fingerprint": increased metabolic oxidation-reduction activity (Alamar Blue fluorescence) relative to untreated control cells [1]: known to produce this characteristic pattern

antimycin
characteristic "fingerprint" with metabolic oxidation-reduction indicator dye (statement on negative controls) [1]: do not exhibit the characteristic “fingerprint,”

gentamicin
concentration required to produce a therapeutic effect [2]: 8 µg/mL | concentration that produces a toxic effect [3]: 12000 ng/mL

polymyxin
characteristic "fingerprint" with metabolic oxidation-reduction indicator dye (statement on negative controls) [4]: do not exhibit the characteristic “fingerprint,”
